Laboratory results reported in patent publication US8901317B2, “Tryptamine derivatives, their preparation and their use in gastropathy” (Council of Scientific & Industrial Research, priority 2010, dated 2014).

Assays:
caspase-9 = assay: Caspase-9 activity in gastric mucosal tissue; assay type: in vivo, rats; settings: gastric mucosa
Protocol: (§1) From cytosolic fraction of gastric mucosal tissues, caspase-9 and caspse-3 activities were measured using commercially available kit (Biovision, Mountain View, Calif., USA and Sigma respectively). In brief, the gastric mucosa was homogenized in caspase lysis buffer (provided with the respective kit). The homogenate was centrifuged at 16,000×g for 15 min. The supernatant was collected and mixed with 50 μl of 2× reaction buffer (provided with the respective kit). This was followed by addition of the substrates: […] (200 μM final concentration) for caspase-3 and LEHD-pNA (200 μM final concentration) for caspase-9. The mixture was incubated at 37° C. for 1 hr and absorbance was taken at 405 nm (Maity, P.; et al. J. Biol. Chem. 284:3058-3068; 2009, Maity, P.; et al. J. Biol. Chem. 283:14391-14401; 2008, Maity, P.; et al. J. Pineal Res. 46:314-323; 2009).

[1] = tested on: cold-restrain stress induced mucosal injury; assay: Cold-restrain stress induced mucosal injury; assay type: in vivo, Sprague-Dwaley rats; settings: immobilized at 4° C. for 3.5 hrs; rats
caspase-3 = assay: Caspase-3 activity in gastric mucosal tissue; assay type: in vivo, rats; settings: in dose dependent manner; gastric mucosa
Protocol: as §1

[2] = Ferric reducing antioxidant power (FRAP) assay
Protocol: The antioxidant property of different tryptamine derivatives were assessed and compared with the known antioxidants for potency. […] The FRAP assay is based on the measurement of the ability of the substance to reduce Fe^3+ to Fe^2+, greater the reducing ability greater the anti oxidant property. Antioxidants reduce Fe^3+-TPTZ in to blue colored Fe^2+-TPTZ complex, which results in an increase in the absorbance at 595 nm giving a FRAP value. […] Absorbance changes at different time intervals (FIG. 6) as well as at different concentrations (FIG. 7) at time 6 min in the presence of different compounds at 595 nm were measured. FRAP values at 6 min and 65 min were calculated from different tryptamine derivatives and some known antioxidant (Table 1). […] DPPH assay based on the DPPH free radicals scavenging power of the antioxidant molecules. Higher the scavenging power higher will be the antioxidant property.
The assay was performed in a 96-well microplate. FRAP reagent was prepared by mixing of 10 ml acetate buffer (200 mM, pH-3.6), 1 ml of 2,4,6-tris(2-pyridyl)-s-triazine (TPTZ) solution (10 mM in 40 mM HCl) and 1 ml of ferric chloride solution (20 mM) in distilled water. For 1 h the mixture was kept in a water bath at 37° C. In 96-well microplates, 25 μL of the compounds under investigation dissolved (in methanol, some compound dissolved in water) at different concentrations in the range 1-25 μM was placed in triplicate and freshly prepared FRAP solution (175 μL) was added to this sample. A micro plate reader monitored the absorbance at 595 nm at different time intervals for up to 150 min. The absorbance of a mixture 175 μL TRAP sol and 25 μL methanol or water was taken which was subtracted from the absorbance of the samples at each time interval to calculate the absorbance change (ΔA). The FRAP value at time interval t (FRAP valuet) was calculated according to the formula: FRAP valuet(M)=(ΔatFl/ΔatFe^2+)×10^−5 Where ΔatFl is the absorbance change after the time interval t (6 and 65 min) relative to the tested flavonoid at the concentration of 10 μM and ΔatFe^2+ is the absorbance change at the same time interval relative to ferrous sulfate at the same concentration (Pal, C; et al. Free Radic Biol Med, 49(2), 258-267, 2010, Firuzi, O; et al. Biochim. Biophys. Acta 1721:174-184; 2005).

[3] = DPPH free radical scavenging assay
Protocol: The antioxidant property of different tryptamine derivatives were assessed and compared with the known antioxidants for potency. A range of different synthesized compounds and known anti oxidants, quercetin, ascorbic acid and gallic acid were analyzed by the FRAP assay. The FRAP assay is based on the measurement of the ability of the substance to reduce Fe^3+ to Fe^2+, greater the reducing ability greater the anti oxidant property. Antioxidants reduce Fe^3+-TPTZ in to blue colored Fe^2+-TPTZ complex, which results in an increase in the absorbance at 595 nm giving a FRAP value. […] Absorbance changes at different time intervals (FIG. 6) as well as at different concentrations (FIG. 7) at time 6 min in the presence of different compounds at 595 nm were measured. FRAP values at 6 min and 65 min were calculated from different tryptamine derivatives and some known antioxidant (Table 1). […] DPPH assay based on the DPPH free radicals scavenging power of the antioxidant molecules. Higher the scavenging power higher will be the antioxidant property. […] This assay was performed in presence of some known antioxidants such as ascorbic acid, quercetin and gallic acid.
2,2-Diphenyl-1-Picrylhydrazyl (DPPH) is a stable free radical that can accept hydrogen radical or an electron and become a stable diamagnetic molecule. The antioxidants can scavenge the DPPH by donating hydrogen as visualized by discoloration of the DPPH radical from purple to yellow (Pal, C; et al. Free Radic Biol Med, 49(2), 258-267; 2010, Ben Farhat, M.; et al. J. Agric. Food Chem. 57:10349-10356; 2009, Han, J; et al. Wei Sheng Yan Jiu 38:596-598; 2009). The assay system contained 1 mL of compounds under investigation dissolved (in methanol, some compound dissolved in water) at different concentrations in the range 10-100 μM solution and 4 ml of DPPH (0.15 mM) in methanol (80% in water v/v) and mixed well. It was allowed to stand for 30 min at 27° C. away from light. Ascorbic acid at the same concentration was taken as positive control. The absorbance of the solution was measured spectrophotometrically at 517 nm and from the decrease of absorption; the antioxidant activity of different tryptamine derivatives were determined.

## O=C(NCCc1c[nH]c2ccc(O)cc12)c1cc(O)c(O)c(O)c1 [Compound 3a, 3,4,5-trihydroxy-N-(2-(5-hydroxy-1H-indol-3-yl)ethyl)benzamide]
caspase-9
  activation of caspase-9 during indomethacin treatment: prevents the activation of caspase-9
[1]
  gastroprotective effect in stress induced gastropathy: protects the gastric mucosa
caspase-3
  indomethacin-induced activation of caspase-3: prevents indomethacin-induced activation of caspase-3
[2]; 6 min, compound at 10 μM relative to ferrous sulfate
  FRAP Value6 min (μM) M ± SD: 39.51 ± 2.7 µM
[2]; 65 min, compound at 10 μM relative to ferrous sulfate
  FRAP Value65 min (μM) M ± SD: 60.61 ± 7.3 µM
[2]; compared to other tryptamine derivatives and known antioxidants
  reducing ability (Fe^3+ to Fe^2+) / antioxidant property in words: greater reducing ability
[3]; among all the derivatives
  DPPH scavenging power in words: higher scavenging power
[3]; compounds 100 μM, 517 nm (Table 2)
  Absorbance change (ΔA) at 30 min: 0.45 ± 0.08
[3]; concentration 10 μM (Table 3)
  Absorbance change (ΔA) at 30 min: 0.27 ± 0.03
[3]; concentration 30 μM (Table 3)
  Absorbance change (ΔA) at 30 min: 0.34 ± 0.05
[3]; concentration 50 μM (Table 3)
  Absorbance change (ΔA) at 30 min: 0.37 ± 0.07
[3]; concentration 80 μM (Table 3)
  Absorbance change (ΔA) at 30 min: 0.42 ± 0.07
[3]; concentration 100 μM (Table 3)
  Absorbance change (ΔA) at 30 min: 0.45 ± 0.08
[3]; data not shown
  antioxidant power compared with ascorbic acid, quercetin and gallic acid: almost equal antioxidant power
